# In US20140134261A1 (priority 2012, published 2014):
# Where two headings read alike, the source gives them in different places.
# What was measured:
# [1] = molecular target: μ-opiate receptor (Homo sapiens, UniProt P35372); details: cited from earlier work
# [2] = test system: Rat peritoneal macrophages; details: 10 μM, pre-incubated 1 h; cited from earlier work
# [3] = in vitro; cited from earlier work
# [4] = test system: PC-3 prostate cancer xenografts; details: given orally; cited from earlier work
# [5] = test system: macrophages; details: preincubation with 10 μM; cited from earlier work
# [6] = humans, after ingestion of 26.6 mg of capsaicin; cited from earlier work
# [7] = male rats, diet with 30% lard, capsaicin at 0.14% of the diet; cited from earlier work
# [8] = test system: cytochrome (CYP) enzymes present in the human liver; details: in vitro; cited from earlier work
# [9] = 1 mg/kg systemic, before cecal ligation and puncture, late sepsis period; cited from earlier work
# [10] = molecular target: TRPV1 receptor (Homo sapiens, UniProt Q8NER1); details: cited from earlier work
# [11] = test system: NF-κ-B; details: pretreatment of human myeloid ML-1a cells; cited from earlier work
# Sequence of TRPV1 receptor (Q8NER1 whole entry): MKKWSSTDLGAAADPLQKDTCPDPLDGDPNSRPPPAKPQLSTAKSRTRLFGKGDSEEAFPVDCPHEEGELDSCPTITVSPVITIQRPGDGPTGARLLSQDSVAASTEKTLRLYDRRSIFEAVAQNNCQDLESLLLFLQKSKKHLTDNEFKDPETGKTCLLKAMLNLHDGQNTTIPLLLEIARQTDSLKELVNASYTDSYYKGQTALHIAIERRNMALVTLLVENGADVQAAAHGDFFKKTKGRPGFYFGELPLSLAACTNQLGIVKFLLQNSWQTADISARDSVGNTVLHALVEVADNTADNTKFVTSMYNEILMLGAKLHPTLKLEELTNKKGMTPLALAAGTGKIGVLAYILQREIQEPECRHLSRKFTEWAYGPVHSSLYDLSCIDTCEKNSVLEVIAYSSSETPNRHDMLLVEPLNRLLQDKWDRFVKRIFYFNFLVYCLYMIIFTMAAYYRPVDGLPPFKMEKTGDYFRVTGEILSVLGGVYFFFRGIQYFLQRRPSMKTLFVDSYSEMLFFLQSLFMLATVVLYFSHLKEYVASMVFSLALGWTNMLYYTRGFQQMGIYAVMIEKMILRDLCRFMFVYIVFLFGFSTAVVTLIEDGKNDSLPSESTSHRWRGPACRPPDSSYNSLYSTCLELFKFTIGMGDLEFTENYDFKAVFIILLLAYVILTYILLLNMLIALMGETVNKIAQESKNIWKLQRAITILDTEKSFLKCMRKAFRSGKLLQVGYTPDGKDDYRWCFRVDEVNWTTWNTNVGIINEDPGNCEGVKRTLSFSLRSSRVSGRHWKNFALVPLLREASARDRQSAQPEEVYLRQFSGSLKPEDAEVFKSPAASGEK
# Sequence of μ-opiate receptor (P35372 whole entry): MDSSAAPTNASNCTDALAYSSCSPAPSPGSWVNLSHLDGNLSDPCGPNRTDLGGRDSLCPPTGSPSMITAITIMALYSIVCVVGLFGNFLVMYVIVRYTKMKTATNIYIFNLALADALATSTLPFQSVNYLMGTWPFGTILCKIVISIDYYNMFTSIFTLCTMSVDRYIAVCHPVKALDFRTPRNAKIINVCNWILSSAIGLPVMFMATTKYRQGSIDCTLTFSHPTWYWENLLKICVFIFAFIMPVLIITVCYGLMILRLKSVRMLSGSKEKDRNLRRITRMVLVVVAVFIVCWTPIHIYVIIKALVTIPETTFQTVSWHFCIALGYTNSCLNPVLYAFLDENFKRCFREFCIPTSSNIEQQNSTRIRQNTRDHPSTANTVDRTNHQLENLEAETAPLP
compound,measurement,setting,value
0-desmethyltramadol [Example M1],analgesic potency relative to the parent drug tramadol,[1],at least twice the analgesic potency
"COc1cc(CNC(=O)CCCCC=CC(C)C)ccc1O [capsaicin, 8-methyl-N-vanillyl-6-nonenamide]",inhibition of incorporation of arachidonic acid into membrane lipids,[2],76%
same,inhibition of leukotriene B4,[2],46%
same,inhibition of leukotriene C4,[2],48%
same,inhibition of prostaglandin E2,[2],48%
same,metabolism in human skin,[3],quite slow
same,growth of xenografts as measured by size,[4],significantly slowed
same,"superoxide anions, hydrogen peroxide, and nitrite radical production",[5],completely inhibited
same,Cmax,[6],2.5 (0.1) ng ml^−1
same,Tmax,[6],47.1 (2.0) min
same,serum triglyceride levels versus high-fat diet without capsaicin,[7],significantly lower
same,metabolism by CYP enzymes in the human liver,[8],metabolized rapidly
same,"lipid peroxidation in various tissues, including lung and liver",[9],decreased
same,affinity as exogenous agonist for the TRPV1 receptor,[10],low nanomolar affinity
same,duration of pain at the site of application,about 1 gram of 8% capsaicin ointment on forehand,~48 h
same,burning sensation at the site of application,"about 1 gram ointment (14.25% capsaicin palmitate or 8% capsaicin) on forehand, six healthy volunteers, asked after 30 minutes",intense burning
same,duration of pain and inflammation,application of 8% capsaicin,almost a day
same,time to intense pain at the site of application,application of 8% capsaicin,≤ 15 min
same,burning pain at the site of application,"topical ointment, about 14.25% capsaicin palmitate (about 8% of capsaicin) or 8% capsaicin, no topical anesthetic",intense pain
same,TNF-mediated activation of NF-κ-B,[11],blocked
"Palmitoyl Ester of Capsaicin USP (Formula I, R=—(CH2)14—CH3) [capsaicin palmitate]",burning pain at the site of application,"human, in vivo",almost no burning pain
same,burning sensation at the site of application,"human, in vivo",did not cause any burning sensation
